Experimental data published in PubChem BioAssay (NCI).
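Five compound concentrations were applied to cells in 96-well plates for 48 hours; endpoints were derived by simple linear interpolation of the resulting dose-response curve. GI50 = concentration required for 50% inhibition of growth. At the TGI there is no net growth.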

Experiments:
Assay in all cases: NCI anticancer screen, dose series, 48 h
[1] = tested on: KM12 colon
[2] = tested on: NCI-H460 lung
[3] = tested on: MALME-3M melanoma
[4] = tested on: OVCAR-5 ovarian
[5] = tested on: HS 578T breast
[6] = tested on: HCT-15 colon
[7] = tested on: HOP-62 NSCLC
[8] = tested on: MDA-MB-231 breast
[9] = tested on: CCRF-CEM leukemia
[10] = tested on: HT29 colon
[11] = tested on: OVCAR-4 ovarian
[12] = tested on: U251 CNS
[13] = tested on: UO-31 renal
[14] = tested on: ACHN renal
[15] = tested on: SF-295 CNS
[16] = tested on: SK-MEL-2 melanoma
[17] = tested on: NCI-H226 lung
[18] = tested on: M14 melanoma
[19] = tested on: HL-60(TB) leukemia
[20] = tested on: PC-3 prostate
[21] = tested on: UACC-257 melanoma
[22] = tested on: SW-620 colon
[23] = tested on: SK-MEL-28 melanoma
[24] = tested on: HCT-116 colon
[25] = tested on: COLO 205 colon
[26] = tested on: DU-145 prostate
[27] = tested on: T-47D breast
[28] = tested on: SF-268 CNS
[29] = tested on: OVCAR-3 ovarian
[30] = tested on: HCC-2998 colon
[31] = tested on: TK-10 renal
[32] = tested on: SN12C renal
[33] = tested on: CAKI-1 renal
[34] = tested on: MOLT-4 leukemia
[35] = tested on: SNB-19 CNS
[36] = tested on: IGROV1 ovarian
[37] = tested on: SK-MEL-5 melanoma
[38] = tested on: BT-549 breast
[39] = tested on: RXF 393 renal
[40] = tested on: EKVX NSCLC
[41] = tested on: A549 NSCLC
[42] = tested on: A498 renal
[43] = tested on: SK-OV-3 ovarian
[44] = tested on: SF-539 CNS
[45] = tested on: HOP-92 NSCLC
[46] = tested on: MCF7 breast
[47] = tested on: LOX IMVI melanoma
[48] = tested on: SNB-75 CNS
[49] = tested on: MDA-MB-435
[50] = tested on: UACC-62 melanoma
[51] = tested on: NCI-H23 lung
[52] = tested on: K-562 leukemia
[53] = tested on: RPMI-8226 leukemia
[54] = tested on: NCI-H522 lung
[55] = tested on: OVCAR-8 ovarian
[56] = tested on: SR leukemia
[57] = tested on: 786-0 renal
[58] = tested on: NCI/ADR-RES ovarian

Which results are given for NCCOc1ncccc1/C=C1\C2C=CC=CC2C2C=CC(F)=CC12 (stereo unspecified)?
GI50 [1]: 1470 nM; TGI [1]: 2.97 µM; GI50 [2]: 283 nM; TGI [2]: 1.46 µM; GI50 [3]: 1420 nM; TGI [3]: 3.17 µM; GI50 [4]: 1690 nM; TGI [4]: 3.4 µM; GI50 [5]: 2550 nM; TGI [5]: 13.1 µM; GI50 [6]: 757 nM; TGI [6]: 2.28 µM; GI50 [7]: 1060 nM; TGI [7]: 2.68 µM; GI50 [8]: 1640 nM; TGI [8]: 3.26 µM; GI50 [9]: 260 nM; TGI [9]: 5.08 µM; GI50 [10]: 1450 nM; TGI [10]: 3.29 µM; GI50 [11]: 2700 nM; TGI [11]: 10.1 µM; GI50 [12]: 622 nM; TGI [12]: 2.06 µM; GI50 [13]: 1310 nM; TGI [13]: 3.06 µM; GI50 [14]: 347 nM; TGI [14]: 1.4 µM; GI50 [15]: 467 nM; TGI [15]: 1.81 µM; GI50 [16]: 2030 nM; TGI [16]: 4.36 µM; GI50 [17]: 1020 nM; TGI [17]: 2.47 µM; GI50 [18]: 1350 nM; TGI [18]: 3.05 µM; GI50 [19]: 334 nM; TGI [19]: 1.42 µM; GI50 [20]: 1150 nM; TGI [20]: 2.45 µM; GI50 [21]: 1760 nM; TGI [21]: 3.86 µM; GI50 [22]: 1070 nM; TGI [22]: 2.66 µM; GI50 [23]: 1510 nM; TGI [23]: 2.9 µM; GI50 [24]: 1130 nM; TGI [24]: 2.6 µM; GI50 [25]: 1110 nM; TGI [25]: 2.63 µM; GI50 [26]: 531 nM; TGI [26]: 1.99 µM; GI50 [27]: 2070 nM; TGI [27]: 6.15 µM; GI50 [28]: 1410 nM; TGI [28]: 11 µM; GI50 [29]: 1450 nM; TGI [29]: 2.77 µM; GI50 [30]: 1250 nM; TGI [30]: 2570 nM; GI50 [31]: 1960 nM; TGI [31]: 4.31 µM; GI50 [32]: 333 nM; TGI [32]: 1.35 µM; GI50 [33]: 429 nM; TGI [33]: 1.87 µM; GI50 [34]: 232 nM; TGI [34]: 1100 nM; GI50 [35]: 816 nM; TGI [35]: 14.1 µM; GI50 [36]: 1160 nM; TGI [36]: 2.47 µM; GI50 [37]: 1470 nM; TGI [37]: 2.79 µM; GI50 [38]: 2640 nM; TGI [38]: 10.8 µM; GI50 [39]: 1570 nM; TGI [39]: 3.17 µM; GI50 [40]: 1200 nM; TGI [40]: 3.05 µM; GI50 [41]: 268 nM; TGI [41]: 2.04 µM; GI50 [42]: 1530 nM; TGI [42]: 3.49 µM; GI50 [43]: 735 nM; TGI [43]: 2.33 µM; GI50 [44]: 1310 nM; TGI [44]: 2.61 µM; GI50 [45]: 258 nM; TGI [45]: 2.19 µM; GI50 [46]: 394 nM; TGI [46]: 1.73 µM; GI50 [47]: 583 nM; TGI [47]: 1.96 µM; GI50 [48]: 1500 nM; TGI [48]: 5.67 µM; GI50 [49]: 1810 nM; TGI [49]: 3.35 µM; GI50 [50]: 1360 nM; TGI [50]: 2880 nM; GI50 [51]: 666 nM; TGI [51]: 3.01 µM; GI50 [52]: 1010 nM; TGI [52]: 3.13 µM; GI50 [53]: 1580 nM; TGI [53]: 3.85 µM; GI50 [54]: 1690 nM; TGI [54]: 4.09 µM; GI50 [55]: 1190 nM; TGI [55]: 3.48 µM

COc1cc2c(cc1OCCCCOc1cc3nc(C)nc(Cl)c3cc1OC)N=C[C@@H]1CCCN1C2=O was tested. Which TGI [1] did it give?
Its TGI is 4.44 µM.

And the TGI [2]?
Its TGI is 45.6 µM.

And the TGI [3]?
Its TGI is 3.4 µM.

What about the TGI [56] of the same molecule?
Its TGI is 1960 nM.

What about the TGI [4] of the same molecule?
The TGI was 5.3 µM.

What about the TGI [5] of the same molecule?
The TGI was 5.63 µM.

And the TGI [6]?
Its TGI is 8.78 µM.

And the TGI [7]?
Its TGI is 7.24 µM.

And the TGI [8]?
The TGI was 3.43 µM.

What about the TGI [10] of the same molecule?
The TGI was 10.2 µM.

What about the TGI [11] of the same molecule?
Its TGI is 11.1 µM.

And the TGI [12]?
Its TGI is 6.88 µM.

And the TGI [13]?
The TGI was 4.73 µM.

And the TGI [14]?
Its TGI is 8.82 µM.

And the TGI [15]?
The TGI was 6.76 µM.

And the TGI [16]?
The TGI was 3.6 µM.

What about the TGI [17] of the same molecule?
Its TGI is 4.07 µM.

And the TGI [18]?
Its TGI is 3.5 µM.

What about the TGI [19] of the same molecule?
Its TGI is 7.43 µM.

What about the TGI [20] of the same molecule?
The TGI was 8.91 µM.

What about the TGI [21] of the same molecule?
Its TGI is 4.04 µM.

What about the TGI [22] of the same molecule?
Its TGI is 10.1 µM.

What about the TGI [23] of the same molecule?
The TGI was 5.54 µM.

And the TGI [57]?
The TGI was 12.4 µM.

What about the TGI [24] of the same molecule?
The TGI was 5.59 µM.

And the TGI [25]?
The TGI was 45.4 µM.

What about the TGI [26] of the same molecule?
The TGI was 13.2 µM.

What about the TGI [27] of the same molecule?
Its TGI is 31.8 µM.

What about the TGI [28] of the same molecule?
Its TGI is 8.44 µM.

And the TGI [29]?
Its TGI is 4.7 µM.

And the TGI [31]?
The TGI was 6.04 µM.

And the TGI [32]?
The TGI was 4.8 µM.

And the TGI [33]?
The TGI was 5.82 µM.

What about the TGI [35] of the same molecule?
The TGI was 33.1 µM.

And the TGI [36]?
The TGI was 4.6 µM.

And the TGI [37]?
Its TGI is 3.4 µM.

And the TGI [39]?
The TGI was 4.64 µM.

What about the TGI [40] of the same molecule?
The TGI was 19.4 µM.

What about the TGI [41] of the same molecule?
Its TGI is 7.56 µM.

What about the TGI [58] of the same molecule?
The TGI was 6.87 µM.

What about the TGI [43] of the same molecule?
Its TGI is > 100 µM.

And the TGI [44]?
The TGI was 4.2 µM.

And the TGI [45]?
The TGI was 5.52 µM.

What about the TGI [46] of the same molecule?
The TGI was > 100 µM.

And the TGI [47]?
Its TGI is 3.04 µM.

And the TGI [48]?
The TGI was 3.34 µM.

What about the TGI [49] of the same molecule?
Its TGI is 2.97 µM.

What about the TGI [50] of the same molecule?
The TGI was 2800 nM.

And the TGI [51]?
Its TGI is 3.37 µM.

And the TGI [52]?
Its TGI is 4.79 µM.

What about the TGI [54] of the same molecule?
Its TGI is 2.12 µM.

And the TGI [55]?
Its TGI is 5.48 µM.

Which results are given for CCOC(=O)C1C=C1C(C)(C)O (stereo unspecified)?
TGI [1]: > 10 µM; TGI [2]: > 10 µM; TGI [3]: > 10 µM; TGI [56]: > 10000 nM; TGI [4]: > 10 µM; TGI [5]: > 10 µM; TGI [6]: > 10 µM; TGI [7]: > 10 µM; TGI [9]: > 10 µM; TGI [10]: > 10 µM; TGI [12]: > 10 µM; TGI [13]: > 10 µM; TGI [14]: > 10 µM; TGI [15]: > 10 µM; TGI [16]: > 10 µM; TGI [17]: > 10 µM; TGI [18]: > 10 µM; TGI [19]: > 10 µM; TGI [20]: > 10 µM; TGI [21]: > 10 µM; TGI [22]: > 10 µM; TGI [23]: > 10 µM; TGI [57]: > 10 µM; TGI [26]: > 10 µM; TGI [27]: > 10 µM; TGI [28]: > 10 µM; TGI [29]: > 10 µM; TGI [31]: > 10 µM; TGI [32]: > 10 µM; TGI [34]: > 10000 nM; TGI [35]: > 10 µM; TGI [36]: > 10 µM; TGI [37]: > 10 µM; TGI [38]: > 10 µM; TGI [39]: > 10 µM; TGI [40]: > 10 µM; TGI [41]: > 10 µM; TGI [42]: > 10 µM; TGI [43]: > 10 µM; TGI [44]: > 10 µM; TGI [45]: > 10 µM; TGI [46]: > 10 µM; TGI [47]: > 10 µM; TGI [48]: > 10 µM; TGI [49]: > 10 µM; TGI [51]: > 10 µM; TGI [52]: > 10 µM; TGI [53]: > 10 µM; TGI [55]: > 10 µM
